Measurements from PMC7469689, “Substituted 4,5′-Bithiazoles as Catalytic Inhibitors of Human DNA Topoisomerase IIα” (Journal of Chemical Information and Modeling, 2020).

Experiments:
[1] = test system: HepG2 cells; assay: DNA double-strand break induction, γ-H2AX assay; assay type: cell-based, human
[2] = test system: HepG2 cells; assay: Cell proliferation, Ki67 flow cytometry; assay type: cell-based, human; conditions: 24 h, 50 μM
[3] = molecular target: T1, human topo IIα (Homo sapiens, UniProt P11388); assay: Human topo IIα-mediated cleavage assay; assay type: biochemical
T1 construct: purchased Inspiralis (Norwich, U.K.)
From the text: To determine whether compounds act as catalytic inhibitors, a cleavage assay was next performed for compounds 1 and 9.
We performed the assay in collaboration with Inspiralis (Norwich, U.K.).

T1 sequence (P11388 whole entry): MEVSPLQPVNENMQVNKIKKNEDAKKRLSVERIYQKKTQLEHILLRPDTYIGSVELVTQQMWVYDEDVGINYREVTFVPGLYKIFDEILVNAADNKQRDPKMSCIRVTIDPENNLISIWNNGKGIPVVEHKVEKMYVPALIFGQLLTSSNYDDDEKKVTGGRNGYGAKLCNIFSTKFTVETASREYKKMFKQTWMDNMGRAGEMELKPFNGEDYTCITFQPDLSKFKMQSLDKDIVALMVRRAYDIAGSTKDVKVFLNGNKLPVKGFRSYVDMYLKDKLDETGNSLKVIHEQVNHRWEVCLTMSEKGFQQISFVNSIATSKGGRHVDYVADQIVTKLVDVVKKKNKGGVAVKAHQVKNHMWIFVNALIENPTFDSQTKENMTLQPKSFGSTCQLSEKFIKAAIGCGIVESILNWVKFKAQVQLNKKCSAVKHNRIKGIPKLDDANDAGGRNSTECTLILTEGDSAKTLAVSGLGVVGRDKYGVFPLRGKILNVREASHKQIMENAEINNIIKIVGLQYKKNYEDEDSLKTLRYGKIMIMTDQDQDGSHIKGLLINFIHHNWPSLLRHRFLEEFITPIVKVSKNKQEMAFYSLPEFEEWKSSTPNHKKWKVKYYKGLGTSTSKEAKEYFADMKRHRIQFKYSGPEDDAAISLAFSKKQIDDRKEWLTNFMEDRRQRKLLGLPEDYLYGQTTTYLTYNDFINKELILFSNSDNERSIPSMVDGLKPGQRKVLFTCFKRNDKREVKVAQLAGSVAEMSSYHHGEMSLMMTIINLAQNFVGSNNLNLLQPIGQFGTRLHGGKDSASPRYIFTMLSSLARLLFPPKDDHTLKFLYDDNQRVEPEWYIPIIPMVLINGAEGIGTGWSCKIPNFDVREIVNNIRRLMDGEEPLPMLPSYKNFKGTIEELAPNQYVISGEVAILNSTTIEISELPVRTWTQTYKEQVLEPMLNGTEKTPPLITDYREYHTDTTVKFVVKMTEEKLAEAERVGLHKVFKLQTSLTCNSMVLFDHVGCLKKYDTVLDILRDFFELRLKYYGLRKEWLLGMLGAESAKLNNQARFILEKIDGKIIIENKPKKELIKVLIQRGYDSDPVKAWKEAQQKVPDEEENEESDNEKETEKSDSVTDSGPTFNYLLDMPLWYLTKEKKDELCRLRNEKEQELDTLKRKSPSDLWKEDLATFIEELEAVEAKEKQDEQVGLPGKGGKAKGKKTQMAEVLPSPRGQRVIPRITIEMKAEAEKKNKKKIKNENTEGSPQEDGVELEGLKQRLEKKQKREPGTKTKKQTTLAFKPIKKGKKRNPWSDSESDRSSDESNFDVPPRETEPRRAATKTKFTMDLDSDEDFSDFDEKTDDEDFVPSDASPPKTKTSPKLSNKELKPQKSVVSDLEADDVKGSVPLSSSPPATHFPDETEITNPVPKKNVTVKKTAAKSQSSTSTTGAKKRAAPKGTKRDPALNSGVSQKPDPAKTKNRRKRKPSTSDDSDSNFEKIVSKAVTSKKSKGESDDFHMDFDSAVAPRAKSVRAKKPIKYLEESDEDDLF

Cc1nc(N)sc1-c1csc(Nc2ccc(C(F)(F)F)cc2)n1 [Compound 1]
induction of DNA double-strand breaks (γH2AX) ([1]; 10 μM): did not induce an increase in DNA-DSB formation
induction of DNA double-strand breaks (γH2AX) ([1]; 50 μM): did not induce an increase in DNA-DSB formation
cell proliferation (Ki67) [2]: 65.1%
% Linear DNA (first column) ([3]; 3.9 μM): 8.05%
% Linear DNA (second column) ([3]; 3.9 μM): 5.57%
% Linear DNA (first column) ([3]; 31.5 μM): 6.32%
% Linear DNA (second column) ([3]; 31.5 μM): 7.77%
% Linear DNA (first column) ([3]; 125 μM): 3.02%
% Linear DNA (second column) ([3]; 125 μM): 2.85%
% Linear DNA (first column) ([3]; 500 μM): 2.45%
% Linear DNA (second column) ([3]; 500 μM): 2.98%
linear DNA formation in cleavage assay (in words) ([3]; four concentrations): did not reveal a significant amount of linear DNA above the background level
